Data as given in paper PMC12391994, “Synthesis of a fac-Tricarbonylrhenium(I) Complex with Pyrithione, Its Physicochemical Characterization, and Assessment of Biological Effects” (ACS Omega, 2025).
Where two headings read alike, the source gives them in different places.

How the values were obtained:
[1] = target: T1, cathepsin B (endopeptidase activity) (Homo sapiens, UniProt P07858); test: Relative inhibition of cathepsin B endopeptidase activity; format: biochemical; conditions: for relative inhibition cathepsin B endopeptidase: 50 μM, substrate Z-Arg-Arg-AMC, pH 6.0
T1 construct: made in house; host or cells: E. coli
Excerpt: (§1) Relative inhibition is expressed as a percentage of the decrease in reaction velocity in the presence of an inhibitor, in comparison to the reaction velocity in the absence of an inhibitor. For that purpose, the specific fluorogenic substrates Z-Arg-Arg-7-amido-4-methylcoumarin (Z-Arg-Arg-AMC) and 2-aminobenzoyl (Abz)-Gly-Ile-Val-Arg-Ala-Lys-(Dnp)-OH were used for cathepsin B endopeptidase and exopeptidase activities, respectively, and Z-Phe-Arg-AMC was used for cathepsin L and V activities.
(§2) Human recombinant cathepsin B was expressed in E. coli, recombinant cathepsin V was expressed in Pichia pastoris, and human recombinant cathepsin L was expressed in E. coli, as reported. − For the determination of cathepsin B endopeptidase and exopeptidase activities, 100 mM phosphate buffer (pH 6.0) and 60 mM acetate buffer (pH 5.0) were used, respectively, and for the determination of cathepsin V and L activities, 100 mM acetate buffer (pH 5.5) was used. All buffers contained 0.1% PEG 8000 (Sigma-Aldrich, St. Louis, MO), 5 mM cysteine, and 1.5 mM EDTA. Prior to the assay, the enzymes were activated in the assay buffer for 5 min at 37 °C.
(§3) To determine the effect of inhibitors on enzyme activity, the following substrates were used: Z-Arg-Arg-AMC (final concentration 5 μM, Z-RR-AMC; Bachem, Bubendorf, Switzerland) for cathepsin B endopeptidase activity, Abz-Gly-Ile-Val-Arg-Ala-Lys-(Dnp)-OH (final concentration 1 μM, Abz-GIVRAK-(Dnp)-OH; Bachem) for cathepsin B exopeptidase activity, and Z-Phe-Arg-AMC (final concentration 2 μM, Z-FR-AMC; Bachem) for cathepsin V and L activity. The substrate ([…]) at a final concentration and inhibitor ([…]) at a concentration of 50 μM were added to the wells of a black microplate. The reaction was then initiated by adding 90 μL of activated enzyme (final concentrations: 5 nM cathepsin B for its endopeptidase activity, 0.5 nM cathepsin B for its exopeptidase activity, 2.5 ng/mL for cathepsin V, and 0.02 nM for cathepsin L) in the assay buffer. The formation of fluorescent degradation products during the reaction was continuously monitored at 460 ± 10 nm with excitation at 380 ± 20 nm for Z-Arg-Arg-AMC and Z-Phe-Arg-AMC and at 420 ± 10 nm with excitation at 320 ± 20 nm for Abz-Gly-Ile-Val-Arg-Ala-Lys(Dnp)-OH at 37 °C on a Tecan Infinite M1000 (Mannedorf, Switzerland) spectrofluorometer. All assay mixtures contained 5% (v/v) DMSO. To prevent false-positive inhibition due to the formation of compound aggregates, 0.01% Triton X-100 was used. All measurements were performed in triplicate and repeated twice. The relative inhibition was calculated using the following equation: relative inhibition (%) = 100(1 – v i/v o), where v i and v o designate the reaction velocities in the presence and absence of inhibitor, respectively.

[2] = target: T2, cathepsin B (exopeptidase activity) (Homo sapiens, UniProt P07858); test: Relative inhibition of cathepsin B exopeptidase activity; format: biochemical; conditions: 50 μM; substrate Abz-Gly-Ile-Val-Arg-Ala-Lys-(Dnp)-OH; pH 5.0
T2 construct: made in house; host or cells: E. coli
Excerpt: as §1, §2, §3

cathepsin L = target: T3, cathepsin L (Homo sapiens, UniProt P07711); test: Relative inhibition of cathepsin L; format: biochemical; conditions: for relative inhibition cathepsin L: 50 μM, substrate Z-Phe-Arg-AMC, pH 5.5
T3 construct: made in house; host or cells: E. coli
T3 sequence (P07711 114-333): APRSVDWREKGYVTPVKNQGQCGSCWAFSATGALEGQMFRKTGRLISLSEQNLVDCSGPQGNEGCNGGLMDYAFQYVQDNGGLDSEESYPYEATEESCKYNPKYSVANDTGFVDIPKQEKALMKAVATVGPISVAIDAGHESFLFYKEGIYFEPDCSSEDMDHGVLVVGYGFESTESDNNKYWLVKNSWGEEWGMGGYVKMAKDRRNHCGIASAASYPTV
Excerpt: as §1, §2, §3

cathepsin V = target: T4, cathepsin V (Homo sapiens, UniProt O60911); test: Relative inhibition of cathepsin V; format: biochemical; conditions: for relative inhibition cathepsin V: 50 μM, substrate Z-Phe-Arg-AMC, pH 5.5
T4 construct: made in house; host or cells: Pichia pastoris
T4 sequence (O60911 114-334): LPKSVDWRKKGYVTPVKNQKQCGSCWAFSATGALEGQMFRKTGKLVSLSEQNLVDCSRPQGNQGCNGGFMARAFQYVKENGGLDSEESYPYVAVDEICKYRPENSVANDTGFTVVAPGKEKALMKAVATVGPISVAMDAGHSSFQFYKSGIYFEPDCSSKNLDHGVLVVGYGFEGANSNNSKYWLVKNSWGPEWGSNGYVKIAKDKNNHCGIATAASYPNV
Excerpt: as §1, §2, §3

[3] = target: T5, human serum albumin (HSA) (Homo sapiens, UniProt P02768); conditions: reported value for similar complex; cited from earlier work
T5 construct: purchased Sigma-Aldrich/Merck A8763
T5 sequence (P02768 25-609): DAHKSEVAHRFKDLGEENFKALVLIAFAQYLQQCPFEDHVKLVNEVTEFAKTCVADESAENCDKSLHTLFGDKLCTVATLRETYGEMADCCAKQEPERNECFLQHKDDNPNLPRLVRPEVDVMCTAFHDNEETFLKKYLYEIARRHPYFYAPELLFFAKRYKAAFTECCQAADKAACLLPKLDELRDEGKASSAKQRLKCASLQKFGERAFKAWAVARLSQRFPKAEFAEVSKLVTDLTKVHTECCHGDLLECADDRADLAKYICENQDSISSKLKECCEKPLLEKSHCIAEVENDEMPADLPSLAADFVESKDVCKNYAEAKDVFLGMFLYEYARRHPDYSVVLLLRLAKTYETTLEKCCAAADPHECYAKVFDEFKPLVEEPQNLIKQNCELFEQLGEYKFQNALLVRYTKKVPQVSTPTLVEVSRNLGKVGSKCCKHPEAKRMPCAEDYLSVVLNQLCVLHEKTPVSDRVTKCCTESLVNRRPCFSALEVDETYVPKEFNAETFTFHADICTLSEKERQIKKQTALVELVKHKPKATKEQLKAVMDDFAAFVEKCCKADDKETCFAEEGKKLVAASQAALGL

S. aureus ATCC 25923 [4] = tested on: S. aureus ATCC 25923; design: method as in our previous work; conditions: only on S. aureus strain; ref our previous work; cited from earlier work
HSV-2 = tested on: HSV-2; design: method as in our previous work; conditions: ref our previous work; cited from earlier work
Colo205 cells = test: MTT cytotoxicity assay, Colo205; format: cell-based, human; conditions: Homo sapiens, read-out: IC50 Colo205
Description: (§4) Its cytotoxicity was determined in the human HeLa cervical cancer cell line, the drug-sensitive Colo205 and its resistant counterpart, the ABCB1 expressing Colo320 colon adenocarcinoma cancer cell lines, using the colorimetric 3-(4,5-dimethylthiazol-2-yl)-2,5-diphenyltetrazolium bromide (MTT) test. To investigate the selectivity toward cancer cells, the noncancerous fibroblast CCD-19Lu cell line was included.
Drug-sensitive Colo205 (ATCC-CCL-222) and ABCB1 (MDR1)-LRP expressing and doxorubicin-resistant Colo320/MDR-LRP (ATCC-CCL-220.1) human colonic adenocarcinoma cell lines were purchased from LGC Promochem (Teddington, U.K.). The cells were cultured in RPMI 1640 medium supplemented with 10% heat-inactivated fetal bovine serum, 2 mM L-glutamine, 1 mM Na-pyruvate, and 10 mM HEPES.
(§5) The tested compound was dissolved in DMSO to prepare a 5 mM stock solution, which was diluted in complete culture medium, to study the effect of compounds on cell growth of human colonic adenocarcinoma cell lines. Doxorubicin was used as the positive control. The cells were treated with a trypsin-versene (EDTA) solution. Cells were adjusted to a density of 1 × 10^4 cells in 100 μL of the appropriate culture medium and were added to each well, with the exception of the medium control wells. Except for the semiadherent Colo205 and Colo320 cell lines, the other adherent cell lines were seeded 24 h prior to the assay. Then, stock solutions were diluted in the appropriate culture medium, and 2-fold serial dilutions of compounds were prepared in 100 μL of the medium, horizontally. The final volume of the wells containing compounds and cells was 200 μL. The plates were incubated at 37 °C for 72 h; at the end of the incubation period, 20 μL of MTT solution (from a stock solution of 5 mg/mL) was added to each well. […] Cell growth was determined by measuring the optical density (OD) at 540/630 nm with a Multiscan EX ELISA reader (Thermo Labsystems, Cheshire, WA). […]

S. aureus ATCC 25923 [5] = test: Antibacterial MIC assay, S. aureus ATCC 25923; format: cell-based, Staphylococcus aureus; conditions: Staphylococcus aureus, ATCC25923; 18 h, visual inspection
Description: (§6) The antibacterial effect of the complex was tested against the Gram-negative strain Escherichia coli (E. coli) ATCC 25922, the Gram-positive reference strain Staphylococcus aureus (S. aureus) ATCC 25923, and the methicillin-resistant S. aureus MRSA ATCC 43300 strain. MRSA strains are responsible for several difficult-to-treat hospital-acquired infections.
(§7) The following bacterial strains were used in our experiments: Gram-positive S. aureus American Type Culture Collection (ATCC) 25923 as the methicillin-susceptible reference bacterial strain; methicillin-resistant S. aureus ATCC 43300 (MRSA) strain; E. coli ATCC 25922 as a Gram-negative bacterial strain.
(§8) MIC values of the complexes were determined in 96-well plates based on the Clinical and Laboratory Standard Institute guidelines (CLSI guidelines). The stock solutions of the compound (dissolved in DMSO at 5 mM concentration) were diluted in 100 μL of Mueller Hinton Broth. Then, 10^–4 dilution of an overnight bacterial culture in 100 μL of medium was added to each well, with the exception of the medium control wells.

[6] = tested on: S. aureus MRSA ATCC 43300; test: Antibacterial MIC assay, S. aureus MRSA ATCC 43300; format: cell-based, Staphylococcus aureus; conditions: Staphylococcus aureus, 18 h, read-out: MIC S. aureus MRSA ATCC 43300
Description: as §6, §7, §8

E. coli ATCC 25922 = test: Antibacterial MIC assay, E. coli ATCC 25922; format: cell-based, Escherichia coli; conditions: Escherichia coli, ATCC25922, 18 h, read-out: MIC E. coli ATCC 25922
Description: as §6, §7, §8

CCD-19Lu cells = test: MTT cytotoxicity assay, CCD-19Lu; format: cell-based, human; conditions: Homo sapiens, CCD 19Lu, 72 h incubation, noncancerous fibroblast
Description: as §4
as §5, with “horizontally.” for “horizontally. The final volume of the wells containing compounds and cells was 200 μL. The plates were incubated at 37 °C for 72 h; at the end of the incubation period, 20 μL of MTT solution (from a stock solution of 5 mg/mL) was added to each well.”

[7] = pH-dependent UV-vis spectrophotometry (solution speciation, pKa of aqua ligand); format: physicochemical
Excerpt: However, at pH > ∼8, the spectrum changes considerably (Figure ).
The isosbestic point indicates a single equilibrium process, which is most likely deprotonation of the coordinated aqua ligand in complex 4a. This process was studied in our previous work for similar fac-[Re(CO)3] complexes formed with (N,N)-bearing ligands, and the calculated pK a (H2O) is around 8. […] Similar pK a values in the presence and absence of the chloride ions indicate a low chloride affinity of the aqua complex. Based on these values, the fraction of [Re(CO)3(pth)(H2O)] is 100% at pH = 7.4. The analogous half-sandwich complex [Ru(cym)(pth)(H2O)]^+ was also characterized by high solution stability, and a similarly high pK a value (10.34 (0.2 M KCl)).
For the solution studies, an Agilent Cary 3500 spectrophotometer was utilized to obtain UV–vis spectra in the wavelength range of 200–1100 nm. The path length ( l ) was 1 cm in all cases. The concentrations of the complex were between 10 and 60 μM. For investigation of the effect of chloride ions, the samples contained 60 μM complex and 0–7300 equiv of Cl^–. For HSA-containing samples, complex concentrations were 60 μM, and 0.5 equiv of biomolecule (or 6 equiv of MIM) was added for kinetic studies, respectively. Individual samples contained 0–34 μM HSA. The computer program HypSpec was used to obtain equilibrium constants.

## [C-]#[O+].[C-]#[O+].[C-]#[O+].[C-]#[O+].[C-]#[O+].[Cl][Re] [[Re(CO)5Cl], rhenium(I) pentacarbonyl chloride]
[1]
  relative inhibition cathepsin B endopeptidase: 6.7 ± 0.7%
[2]
  relative inhibition cathepsin B exopeptidase: 12.2 ± 3.0%
Cathepsin L
  relative inhibition cathepsin L: 1.6 ± 6.5%
Cathepsin V
  relative inhibition cathepsin V: 4.6 ± 0.3%

## Cc1ccc(C(C)C)cc1.[Cl-].[O-][n+]1ccccc1[S-].[Ru+2] [[Ru(cym)(pth)Cl], [ruthenium(η^6-p-cymene)(pyrithionato)(chlorido)]]
[1]
  relative inhibition cathepsin B endopeptidase: 9.4 ± 1.8%
[2]
  relative inhibition cathepsin B exopeptidase: 5.4 ± 7.2%
Cathepsin L
  relative inhibition cathepsin L: 1.5 ± 1.5%
Cathepsin V
  relative inhibition cathepsin V: 1.7 ± 5.7%
[3]
  log KQ quenching constant: 5.81
S. aureus ATCC 25923 [4]
  MIC S. aureus strain: 50 µM
HSV-2
  inhibition of growth of the HSV-2 virus: did not inhibit the growth of the HSV-2 virus

## N#Cc1ccccc1 [benzonitrile, reference compound]
Colo205 cells; COLO 205, 72 h
  IC50: > 100000 nM
S. aureus ATCC 25923 [5]
  MIC: > 100 µM
[6]
  MIC: > 100 µM
E. coli ATCC 25922
  MIC: > 100 µM

## COc1cccc2c1C(=O)c1c(O)c3c(c(O)c1C2=O)C[C@@](O)(C(=O)CO)C[C@@H]3O[C@H]1C[C@H](N)[C@H](O)[C@H](C)O1 [doxorubicin, reference compound]
Colo205 cells; COLO 205, 72 h incubation, MTT
  IC50: 584 ± 55 nM
CCD-19Lu cells
  IC50: 244 ± 26 nM

## [O-][n+]1ccccc1S [pthH, Pyrithione]
[1]; pH 6, read-out: relative inhibition cathepsin B endopeptidase
  inhibition at 50 µM: 4.3 ± 2.3%
[2]
  relative inhibition cathepsin B exopeptidase: n.i. ^a
Cathepsin L; pH 5.5, read-out: relative inhibition cathepsin L
  inhibition at 50 µM: 0.5 ± 1.9%
Cathepsin V; pH 5.5, read-out: relative inhibition cathepsin V
  inhibition at 50 µM: 2.3 ± 3.2%

## [Re(CO)3(pth)(H2O)] [complex 4a]
[7]; 0.1 M KCl, 25.0 °C
  pKa (deprotonation of coordinated aqua ligand): 10.27 ± 0.01
[7]; 0.1 M KNO3
  pKa (deprotonation of coordinated aqua ligand): 10.15 ± 0.01
[7]; pH = 7.4, based on the pKa values
  fraction of aqua complex: 100%

## zinc pyrithione
[1]
  relative inhibition cathepsin B endopeptidase: 8.7 ± 2.2%
[2]
  relative inhibition cathepsin B exopeptidase: 11.1 ± 2.2%
Cathepsin L
  relative inhibition cathepsin L: 1.3 ± 2.4%
Cathepsin V
  relative inhibition cathepsin V: 1.9 ± 3.0%
